{
  "source": "patent US20160025704A1",
  "about": "“METHODS FOR IDENTIFYING NEUROPROTECTIVE PKC ACTIVATORS” (priority 2013, published 2016)",
  "key": {"PKC-ε": {"biological_target": "T1, PKC-ε (Mus musculus, UniProt P16054)", "T1 construct": "from tissue; host or cells: brain of C57BL/6 mice", "T1 sequence (P16054 1-737)": "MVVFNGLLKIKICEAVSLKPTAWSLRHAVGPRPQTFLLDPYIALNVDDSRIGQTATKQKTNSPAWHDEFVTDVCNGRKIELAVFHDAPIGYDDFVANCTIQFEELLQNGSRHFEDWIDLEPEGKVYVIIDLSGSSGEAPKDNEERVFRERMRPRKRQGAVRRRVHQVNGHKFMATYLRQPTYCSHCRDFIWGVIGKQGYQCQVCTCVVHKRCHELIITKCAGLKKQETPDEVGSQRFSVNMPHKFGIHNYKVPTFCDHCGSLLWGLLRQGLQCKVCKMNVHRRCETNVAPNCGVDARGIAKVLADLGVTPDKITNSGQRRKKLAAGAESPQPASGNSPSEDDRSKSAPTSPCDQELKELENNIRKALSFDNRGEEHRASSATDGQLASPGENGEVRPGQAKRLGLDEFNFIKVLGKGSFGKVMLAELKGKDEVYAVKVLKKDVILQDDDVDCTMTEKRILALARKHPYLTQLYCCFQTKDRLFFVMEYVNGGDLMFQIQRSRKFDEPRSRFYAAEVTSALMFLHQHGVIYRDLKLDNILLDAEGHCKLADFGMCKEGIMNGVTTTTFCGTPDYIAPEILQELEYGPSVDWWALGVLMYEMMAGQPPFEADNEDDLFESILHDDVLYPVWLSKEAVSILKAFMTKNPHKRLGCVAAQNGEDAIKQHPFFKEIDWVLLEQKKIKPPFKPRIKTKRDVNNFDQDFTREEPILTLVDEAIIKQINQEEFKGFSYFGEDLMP", "assay": "PKC-ε activation and translocation by bryostatin in mouse brain (Western blot)", "type": "in vivo", "protocol": "Protocol: Male C57BL/6M mice (15-20 g, Charles River) were acclimatized for 7-8 days in a non-enriched environment, three mice per cage. Bryostatin (Tocris) was dissolved in DMSO, diluted into 0.9% saline, and injected into the tail vein at doses of 10 and 15 μg/m2. After a fixed period, the mice were anesthetized with CO2 and the brain was frozen on dry ice. Blood was mixed with 0.2 ml 1 mM EDTA in PBS, centrifuged at 100 g for 30 min, and plasma was frozen on dry ice. In some experiments, blood lymphocyte fractions were collected using Ficoll-Paque Plus reagent using the procedure recommended by the manufacturer. All animal procedures were approved by the institutional IACUC.\nActivation and translocation of PKC-ε were measured by Western blotting after subcellular fractionation into cytosol and particulate fractions. Homogenates were centrifuged at 100,000×g for 20 min and cytosolic and particulate fractions were separated on 4-20% Tris-glycine SDS polyacrylamide gels, blotted onto nitrocellulose, and probed with isozyme specific antibodies. The blots were photographed in a GE ImageQuant at 16 bits/pixel and analyzed by vertical strip densitometry using Imal Unix software.\nBryostatin was injected into the tail vein of C57BL/6N mice at 10 and 15 μg/m2 (equivalent to 3.50 and 5.25 μg/kg), and brain PKC-ε concentration was measured using Western blots. Brain PKC-ε activation was biphasic, peaking at 0.5 h and slowly declined toward resting levels, even though bryostatin levels continued to increase. This is consistent with the short-lived activation of PKC established previously. […] The bryostatin concentration at 0.5 h was 0.029 nM.\nThe results of a dose dependence study of activation of PKCα and PKCε translocation by bryostatin, are shown below in FIG. 4 (measured 30 minutes after administration), and FIG. 5 (measured 120 minutes after administration). The effect of bryostatin on brain PKC translocation (an indicator of enzymatic activation) was also biphasic, with maximal effects observed at doses between 5 and 10 μg/m2."}, "monomeric Aβ(1-42)": {"tested_on": "monomeric Aβ(1-42)", "assay": "Aβ peptide degradation by SH+hNEP cells", "type": "cell-based, human", "conditions": "1 nM, 2.5 μg monomeric Aβ(1-42), 4 hours", "protocol": "Protocol: Intact SH+hNEP cells were incubated with 2.5 μg of monomeric Aβ(1-42) for 4 hours in the absence or presence of bryostatin (Bryo, 1 nM). Some cells were cotreated with phosphoramidon (PA, 10 μM, a specific neprilysin inhibitor), Ro 32-0432 (Ro, 2 μM, a PKC inhibitor), or PA+Ro in the presence of bryostatin (1 nM) for 4 hours. Aβ peptide was then precipitated from the reactions by 20% trichloroacetic acid and immunoblotted with use of Aβ peptide 1-16 antibody (6E10). Arrow indicates the size of monomeric Aβ peptide (FIG. 18), which is around 4 kDa. Densitometry measurements of developed protein bands on Western blots were made and assigned as relative expression change (Mean+SEM of three independent experiments, **P<0.01, Bryo compared with untreated; #P<0.01, PA, Ro, or PA+Ro compared with Bryo.)."}, "cerebral ischemia rats": {"tested_on": "cerebral ischemia rats", "assay": "Spatial learning, memory and visible platform test after cerebral ischemia", "type": "in vivo", "conditions": "15 μg/m2 tail vein", "protocol": "Protocol: Bryostatin-1 (15 μg/m2) was administered through a tail vein (2 doses/week, for 10 doses), starting 24 hours after the end of the ischemic (2-VO)/hypoxic event. The ability of the rats in spatial learning (2 trials/day for 4 days) and memory (a probe test of 1 min, 24 hours after the last trial) was evaluated, with the first training started 9 days after the last dose of bryostatin-1. […] (Bry—bryostatin-1; Isch—cerebral ischemia; NS—not significant) (*, P<0.05)."}, "[1]": {"tested_on": "healthy brown Norway rats", "assay": "Mushroom spine formation in healthy rats after water maze training", "type": "in vivo", "conditions": "given during water maze training", "excerpt": "Protocol: Non-diseased, healthy brown Norway rats (at 4-5 months old) were used in this study. Bryostatin enhanced the formation of mushroom spines in healthy rats after water maze training as shown in a-e. Memory retention after water maze training (4 swims per days for 5 days) increased the number of mushroom dendritic spine and synapses with (e) perforated postsynaptic densities (PSDs), but not with macular PSDs (d). […] Nv=naîve controls; Sw=swim controls; Mz=water maze treatment; and Mz/Br=water maze treatment plus bryostatin treatment."}, "sAPP-α": {"tested_on": "sAPP-α", "assay": "sAPP-α secretion in an Alzheimer's disease cell line", "type": "cell-based, human", "conditions": "AD cell line", "protocol": "Protocol: An Alzheimer's disease cell line was incubated with bryostatin (0.1 nM), Benzolactam (0.1 nM or 1.0 μM), DMSO, pre-treated with staurosporin (100 nM) plus bryostatin (0.1 nM) for three hours. […] The graph units are relative to the vehicle, DMSO, alone (1)."}, "alpha-secretase": {"tested_on": "alpha-secretase", "conditions": "human fibroblasts; Etcheberrigaray et al. 2004; cited from earlier work"}},
  "data": [
    {"smiles": "CCC/C=C/C=C/C(=O)O[C@H]1/C(=C/C(=O)OC)C[C@H]2C[C@H]([C@@H](C)O)OC(=O)C[C@H](O)C[C@@H]3C[C@H](OC(C)=O)C(C)(C)[C@](O)(C[C@@H]4C/C(=C/C(=O)OC)C[C@H](/C=C/C(C)(C)[C@]1(O)O2)O4)O3", "note": "[Bryostatin, bryostatin-1]", "values": [
      {"measurement": "PKC-ε translocation in mouse brain", "setting": "PKC-ε; 30 and 120 minutes after administration", "result": "translocation was only observed by PKC-ε"},
      {"measurement": "downregulation of brain PKC-ε", "setting": "PKC-ε; tail vein 10 and 15 μg/m2, C57BL/6N mice", "result": "No downregulation below starting values was observed"},
      {"measurement": "time of peak brain PKC-ε activation", "setting": "PKC-ε; tail vein 10 and 15 μg/m2, C57BL/6N mice, biphasic", "result": 0.5, "unit": "h"},
      {"measurement": "Aβ peptide degradation", "setting": "monomeric Aβ(1-42)", "result": "induces Aβ peptide degradation through neprilysin activation"},
      {"measurement": "sensorimotor ability (visible platform test)", "setting": "cerebral ischemia rats; 2 doses/week for 10 doses (FIG. 23)", "result": "but not sensorimotor ability"},
      {"measurement": "learning experience and memory after cerebral ischemia", "setting": "cerebral ischemia rats; 2 doses/week for 10 doses, training started 9 days after last dose (FIG. 23)", "result": "rescues learning experience and memory"},
      {"measurement": "mushroom spines with macular PSDs", "setting": "[1]", "result": "significantly increased"},
      {"measurement": "mushroom spines with perforated PSDs", "setting": "[1]", "result": "enhanced"},
      {"measurement": "sAPP-α secretion at lower concentration", "setting": "sAPP-α; 0.01 nM, time course", "result": "much slower but had about the same effect on secretion after 120 min of incubation"},
      {"measurement": "amount of sAPP-α in the medium", "setting": "sAPP-α; 0.1 nM, 3 h incubation, relative to DMSO", "result": "dramatically enhanced the amount of sAPP-α in the medium"},
      {"measurement": "incubation time at which secretion is near maximal", "setting": "sAPP-α; 0.1 nM, time course", "result": 160, "unit": "min"},
      {"measurement": "potency in sAPP-α secretion compared with BL", "setting": "sAPP-α; both at 0.1 nM", "result": "more potent than another PKC activator, BL"},
      {"measurement": "activation of alpha-secretase (sAPP generation)", "setting": "alpha-secretase", "result": "activate the alpha-secretase"}
    ]}
  ]
}
